No end group written: not given here.
Columns and labels:
A. baumannii ATCC19606 [1] = assay: NPN uptake assay, outer membrane permeabilization; type: cell-based; settings: peptides at their MIC
Experimental: Method. Membrane permeabilization was assessed for two of the naturally occurring peptides (VmCT1 and temporin A) and two of the hybrids [VmCT1-temporin A (VT) and temporin A-VmCT1 (TV)] at their MIC by using the N-phenyl-1-naphthylamine (NPN) uptake assay as previously described^104, 105. Briefly, A. baumannii ATCC19606 cells were grown to an optical density at 600 nm (OD600) of 0.4, centrifuged (10,000 rpm at 4° C. to 10 minutes), washed, and resuspended in buffer (5 mmol L^−1 HEPES, 5 mmol L^−1 glucose, pH 7.4). Four μL of NPN solution (0.5 mmol L^−1; working concentration of 10 μmol L^−1, after dilutions) was added to 100 μL of the bacterial solution in 96-well plates. The background fluorescence was then determined at λex=350 nm and […]. The peptides resuspended in water (100 μL at a concentration of 1.2 μmol L^−1) were added to each 96-well plate. The fluorescence was determined as a function of time until no further increase in fluorescence was observed (45 min).

[2] = test system: MCF-7 human breast cancer cells; assay: Anticancer activity, MTT assay; type: cell-based; settings: for MCF-7 4 h LD50 / MCF-7 24 h LD50: MTT
Experimental: The anticancer activity assays were performed using MCF-10A human breast epithelial cells and MCF-7 mammary cancer cells as previously described by Pedron et al. 86. Briefly, the day before treatment, the cells were incubated at 37° C. and 5% CO2 for 24 h. The cells were treated with peptides ranging from 12.5 to 100 μmol L^−1 (MCF10-A cells) and 0.8 to 100 μmol L^−1 (MCF-7 cells) for 4 h and 24 h at 37° C., and cell viability was measured using 3-(4,5-Dimethylthiazol-2-yl)-2,5-diphenyltetrazolium bromide (MTT) assays 87. Three independent replicates were performed in each case.

[3] = Resistance to degradation in fetal bovine serum; type: in vitro ADME; settings: for remaining at 0.5 h / remaining peptide, 30 min: 30 min; for remaining at 0.5 h: read-out: remaining peptide, 30 min
How it was run: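 Peptide added to fetal bovine serum diluted to 25% in water at 37° C; aliquots taken at 0, 0.5, 1, 2, 4 and 6 h. Remaining peptide quantified by LC peak-area integration relative to time 0; three independent replicates.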

skin tissue = assay: Skin tissue histopathological analysis (H&E); type: in vivo, mice; settings: 24 h after infection and treatment
Experimental: Skin tissue histopathological analysis. […] The fur on the back of the mice was removed and the mice were infected and treated as described in the Skin abscess infection mouse model section. After 24 h, mice were euthanized for tissue collection. Samples were pre-fixed in individual cassettes, then transferred to a container filled with 70% EtOH for slicing and staining. Next, the samples were placed on glass slides for microscopy analysis. We collected the tissue from three mice per condition analyzed.

A. baumannii ATCC19606 [4] = assay: Skin abscess infection mouse model; type: in vivo, mice; settings: for anti-infective activity four days after the treatment, reduction of load of A. baumannii cells / anti-infective activity two days post-treatment: skin infection, peptides onto the abscess at their MIC; for anti-infective activity versus parent peptides: skin scarification mouse model
Experimental: Skin abscess infection mouse model. The anti-infective activity of the peptides VmCT1, temporin A, VT, and TV against A. baumannii ATCC19606 was evaluated as described by Torres et al.^82. Bacteria were grown in tryptic soy broth medium to an optical density of 0.5 at 600 nm. Cells were washed twice with sterile phosphate buffered saline (pH 7.4, 13,000 rpm for 1 min) and resuspended to a final concentration of 1×10^7 CFU/20 μL. To generate the skin infection, female CD-1 mice (6 weeks-old) were first anesthetized with isoflurane and their backs were shaved. A superficial linear abrasion was made with a needle on the shaved area to injure only the stratum corneum and the upper layer of the epidermis. An aliquot of 20 μL suspension containing 1×10^7 CFU of A. baumannii was then inoculated over the wound area with a pipette tip. The next day, the infected area was inoculated with the peptides (VmCT1, temporin A, VT, and TV), which were administered onto the abscess at their MIC. The animals were euthanized, and the scarified skin area removed 2- and 4-days post-infection. The excised area was homogenized using a bead beater for 20 min (25 Hz) and serially diluted for CFU quantification. Two independent experiments were carried out with 3 mice per group in each condition.

A. baumannii ATCC19606 [5] = assay: DiSC3(5) assay, cytoplasmic membrane depolarization; type: cell-based; settings: peptides at their MIC
Experimental: Method. The cytoplasmatic membrane depolarization activity of two of the naturally occurring peptides (VmCT1 and temporin A) and two of the hybrids (VT and TV) was determined at their MIC by performing the membrane potential-sensitive dye DiSC3(5), as reported previously^105, 106. A. baumannii ATCC19606 cells were grown at 37° C. with agitation to an optical density of 600 nm (OD600) of 0.5, centrifuged, washed twice with buffer (5 mmol L^−1 HEPES, 20 mmol L^−1 glucose, pH 7.2), and resuspended to an OD600 of 0.05 in the same buffer but containing 0.1 mol L^−1 KCl. Cells (100 μL) were incubated for 15 minutes with 20 nmol L^−1 of DiSC3(5) until a stable reduction in fluorescence was observed, indicating the incorporation of the DiSC3(5) into the bacterial membrane. After adding the peptides (100 μL solution at 1.2 μmol L^−1), membrane depolarization was determined by the change observed in the fluorescence emission intensity of the dye at λex=622 nm and […].

[6] = bovine, fetal bovine serum, 25% in water, fetal bovine serum 25% in water, 37° C.
[7] = fetal bovine serum 25% in water, 37° C.

| Substance | outer membrane permeabilization, NPN fluorescence (A. baumannii ATCC19606 [1]) | MCF-7 4 h LD50 [2] [µmol/L] | MCF-7 24 h LD50 [2] [µmol/L] | concentration with activity against MCF-7 human breast cancer cells ([2]; incubation time not stated) [µmol/L] | remaining at 0.5 h [3, 6] [%] | remaining at 1 h ([3]; bovine, fetal bovine serum, 25% in water, fetal bovine serum 25% in water, 37° C., 1 h, read-out: remaining peptide, 1 h) [%] | remaining at 2 h ([3]; bovine, fetal bovine serum, 25% in water, fetal bovine serum 25% in water, 37° C., 2 h, read-out: remaining peptide, 2 h) [%] | remaining peptide, 30 min [3, 7] | remaining peptide, 1 h ([3]; fetal bovine serum 25% in water, 37° C., 1 h) | tissue morphology / toxicity, H&E staining (skin tissue) | anti-infective activity four days after the treatment, reduction of load of A. baumannii cells (A. baumannii ATCC19606 [4]) | anti-infective activity two days post-treatment (A. baumannii ATCC19606 [4]) | anti-infective activity versus parent peptides (A. baumannii ATCC19606 [4]) | cytoplasmic membrane depolarization, DiSC3(5) fluorescence (A. baumannii ATCC19606 [5]) | time of exposure after which totally degraded ([3]; fetal bovine serum) [h] |
| --- | --- | --- | --- | --- | --- | --- | --- | --- | --- | --- | --- | --- | --- | --- | --- |
| FLGALWNVAKSVF-NH2 [VmCT1, Phe-Leu-Gly-Ala-Len-Trp-Asu-Val-Ala-Lys-Ser-Val-Phe, reference compound] | increased fluorescence compared to the control | 50 | 12.5 | 50 | ~20 | < 10 | < 10 | approximately 20% | less than 10% | Neither TV nor VmCT1 changed the tissue's morphology | – | – | – | – | – |
| FLPLLWRVASGVF-NH2 [VT, Phe-Leu-Pro-Leu-Leu-Trp-Arg-Val-Ala-Ser-Gly-Val-Phe] | did not lead to increased fluorescence compared to the control | – | – | – | – | – | – | – | – | – | the same effect as the two parent peptides | increased anti-infective activity when compared to the parent peptides | more potent than that of either parent peptides | depolarized the cytoplasmic membrane | – |
| ILGAILNVLKSLG-NH2 [PV, Ile-Leu-Gly-Ala-Ile-Leu-Asn-Val-Leu-Lys-Ser-Leu-Gly] | – | – | – | – | ~90 | – | – | ~ 90% | – | – | – | – | – | – | 1 |
| FLGAIGNVLKSIL-NH2 [TV, Phe-Leu-Gly-Ala-Ile-Gly-Asn-Val-Leu-Lys-Ser-Ile-Leu] | increased fluorescence compared to the control | – | – | – | – | – | – | – | – | Neither TV nor VmCT1 changed the tissue's morphology | two orders of magnitude | increased anti-infective activity when compared to the parent peptides | more potent than that of either parent peptides | depolarized the cytoplasmic membrane | – |
| FLPLIGRVLSGIL-NH2 [Temporin A, Phe-Leu-Pro-Leu-Ile-Gly-Arg-Val-Leu-Ser-Gly-Ile-Leu, reference compound] | increased fluorescence compared to the control | 50 | 50 | – | – | – | – | – | – | – | – | – | – | – | – |
